In article PMC8794153, “Access to highly specialized growth substrates and production of epithelial immunomodulatory metabolites determine survival of Haemophilus influenzae in human airway epithelial cells” (PLoS Pathogens, 2022):

Columns and labels:
[1] = test system: LldD L-lactate dehydrogenase; details: read-out: KM_app; DCPIP 0.1 mM electron acceptor, PMS 0.25 mM, MgCl2 2 mM, phosphate pH 7.4, 37 °C
LdhA = test system: T1, LdhA; assay: NADH oxidation at […] nm, cell-free extract; assay type: cell-based, Haemophilus influenzae; details: Tris-Cl pH 7.5, 37 °C
T1 construct: native soluble enzyme in cell-free extract of Hi2019; not purified; no tag

C[C@H](O)C(=O)O [L-lactate]
Km [1]: 300 ± 30 µM

CC(=O)C(=O)O [pyruvate]
Km (LdhA; NADH co-substrate): 3380 ± 840 µM

NC(=O)C1=CN([C@@H]2O[C@H](COP(=O)(O)OP(=O)(O)OC[C@H]3O[C@@H](n4cnc5c(N)ncnc54)[C@H](O)[C@@H]3O)[C@@H](O)[C@H]2O)C=CC1 [NADH]
Km (LdhA; pyruvate co-substrate (std. 10 mM)): 55 ± 3 µM
